{
  "source": "patent US20250353891A1",
  "about": "(MEDIMMUNE LIMITED, priority 2022, published 2025)",
  "key": {"[1]": {"target": "human glucagon receptor (hGCGR) (Homo sapiens, UniProt P47871)", "sequence (P47871 26-477)": "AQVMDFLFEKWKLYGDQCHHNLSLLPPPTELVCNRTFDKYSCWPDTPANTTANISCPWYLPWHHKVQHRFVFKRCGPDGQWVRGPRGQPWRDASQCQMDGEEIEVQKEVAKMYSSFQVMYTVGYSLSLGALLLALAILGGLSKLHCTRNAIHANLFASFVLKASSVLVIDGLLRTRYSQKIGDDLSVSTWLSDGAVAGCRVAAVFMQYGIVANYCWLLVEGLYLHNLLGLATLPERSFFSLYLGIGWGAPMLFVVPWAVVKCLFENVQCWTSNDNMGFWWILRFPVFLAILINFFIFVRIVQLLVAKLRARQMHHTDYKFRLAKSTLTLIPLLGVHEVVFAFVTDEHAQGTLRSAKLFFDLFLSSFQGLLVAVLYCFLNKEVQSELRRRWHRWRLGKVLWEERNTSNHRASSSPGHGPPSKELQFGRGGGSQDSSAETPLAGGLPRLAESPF", "test": "cAMP production (HTRF) in CHO cells expressing hGCGR", "assay_type": "cell-based", "set-up": "expressed in transfected cells", "details": "Table 6, peptides modified at position 17; cAMP in CHO hGCGR cells; geometric mean; read-out: hGluc-R EC50", "how_it_was_run": "(§1)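 Cells were resuspended in assay buffer at batch-optimized density, typically 1×10^5 cells/mL for hGLP-1R and 2×10^5 cells/mL for hGCGR. After 30 min incubation at room temperature with compound, cAMP was measured by two-step HTRF. EC50 values came from 4-parameter logistic fits of % Delta F.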"}, "[2]": {"target": "human GLP-1 receptor (hGLP-1R) (Homo sapiens, UniProt P43220)", "sequence (P43220 24-463)": "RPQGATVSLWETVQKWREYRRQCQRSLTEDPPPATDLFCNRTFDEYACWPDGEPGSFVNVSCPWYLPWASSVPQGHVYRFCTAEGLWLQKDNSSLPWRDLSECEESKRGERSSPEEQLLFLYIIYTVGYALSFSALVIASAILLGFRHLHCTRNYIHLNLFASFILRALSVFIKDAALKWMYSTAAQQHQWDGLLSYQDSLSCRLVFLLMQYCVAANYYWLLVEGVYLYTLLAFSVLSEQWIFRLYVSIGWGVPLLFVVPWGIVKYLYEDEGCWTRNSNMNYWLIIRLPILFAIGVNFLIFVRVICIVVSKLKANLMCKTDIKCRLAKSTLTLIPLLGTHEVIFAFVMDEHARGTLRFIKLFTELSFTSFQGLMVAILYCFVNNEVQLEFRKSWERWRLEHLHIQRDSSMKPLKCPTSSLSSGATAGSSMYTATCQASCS", "test": "cAMP production (HTRF) in CHO cells expressing hGLP-1R", "assay_type": "cell-based", "set-up": "expressed in transfected cells", "details": "for EC50: Table 6, peptides modified at position 17, cAMP in CHO hGLP-1R cells, geometric mean, read-out: hGLP-1R EC50; for % Relative Potency Ratio: Table 6, % GLP-1R activity relative to GLP-1 / % GlucR activity relative to glucagon", "how_it_was_run": "as §1"}},
  "note": "Starred links: 1 amine or outer side, 2 acyl side, 3 side chain; linkers in the order of their positions; H or OH if unused. Non-standard residues stand in square brackets, D forms with d. Residues, ends and D or L forms follow the SMILES beside them. Groups on a side chain read outwards from the residue. *: point of attachment. C20 diacid = O=C(O)CCCCCCCCCCCCCCCCCCC(=O)*; C18 diacid = O=C(O)CCCCCCCCCCCCCCCCC(=O)*; γGlu = O=C(O)[C@H](CCC(=O)[*:2])N[*:1]; αMeF = C[C@](N)(Cc1ccccc1)C(=O)O; AEEA = NCCOCCOCC(=O)O; Aib = CC(C)(N)C(=O)O",
  "data": [
    {"smiles": "CC(C)C[C@H](NC(=O)[C@H](Cc1c[nH]c2ccccc12)NC(=O)[C@H](CCCNC(=N)N)NC(=O)[C@@H](NC(=O)[C@H](Cc1ccccc1)NC(=O)[C@H](CC(=O)O)NC(=O)[C@H](CCC(N)=O)NC(=O)[C@H](C)NC(=O)[C@H](CCCNC(=N)N)NC(=O)[C@H](CCCCNC(=O)COCCOCCNC(=O)COCCOCCNC(=O)CC[C@H](NC(=O)CCCCCCCCCCCCCCCCC(=O)O)C(=O)O)NC(=O)[C@H](CO)NC(=O)[C@H](CC(=O)O)NC(=O)[C@H](CC(C)C)NC(=O)[C@](C)(Cc1ccccc1)NC(=O)[C@H](CCCCN)NC(=O)[C@H](CO)NC(=O)[C@@H](NC(=O)[C@H](CC(=O)O)NC(=O)[C@H](CO)NC(=O)[C@@H](NC(=O)[C@H](Cc1ccccc1)NC(=O)[C@@H](NC(=O)CNC(=O)[C@H](CCC(N)=O)NC(=O)C(C)(C)NC(=O)[C@@H](N)Cc1c[nH]cn1)[C@@H](C)O)[C@@H](C)O)C(C)C)C(C)C)C(=O)N[C@@H](CCC(=O)O)C(=O)N[C@@H](C)C(=O)NC(C)(C)C(=O)NCC(=O)O", "note": "[Peptide 147] (H-H[Aib]QGTFTSDVSK[αMeF]LDSK([AEEA-AEEA-γGlu-C18 diacid])RAQDFVRWLEA[Aib]G-OH; N-terminus assumed)", "values": [
      {"measurement": "EC50", "setting": "[1]", "result": 43.5, "unit": "pM"},
      {"measurement": "EC50", "setting": "[2]", "result": 15.3, "unit": "pM"},
      {"measurement": "% Relative Potency Ratio", "setting": "[2]", "result": 5.6}
    ]},
    {"smiles": "CC[C@H](C)[C@H](NC(=O)[C@H](Cc1c[nH]c2ccccc12)NC(=O)[C@H](CCCNC(=N)N)NC(=O)[C@@H](NC(=O)[C@H](Cc1ccccc1)NC(=O)[C@H](CC(=O)O)NC(=O)[C@H](CCC(N)=O)NC(=O)[C@H](C)NC(=O)[C@H](CCCNC(=N)N)NC(=O)[C@H](CCCCNC(=O)COCCOCCNC(=O)COCCOCCNC(=O)CC[C@H](NC(=O)CCCCCCCCCCCCCCCCC(=O)O)C(=O)O)NC(=O)[C@H](CO)NC(=O)[C@H](CC(=O)O)NC(=O)[C@H](CC(C)C)NC(=O)[C@](C)(Cc1ccccc1)NC(=O)[C@H](CCCCN)NC(=O)[C@H](CO)NC(=O)[C@@H](NC(=O)[C@H](CC(=O)O)NC(=O)[C@H](CO)NC(=O)[C@@H](NC(=O)[C@H](Cc1ccccc1)NC(=O)[C@@H](NC(=O)CNC(=O)[C@H](CCC(N)=O)NC(=O)C(C)(C)NC(=O)[C@@H](N)Cc1c[nH]cn1)[C@@H](C)O)[C@@H](C)O)C(C)C)C(C)C)C(=O)N[C@@H](C)C(=O)N[C@@H](CCC(=O)O)C(=O)NC(C)(C)C(=O)NCC(=O)O", "note": "[Peptide 148] (H-H[Aib]QGTFTSDVSK[αMeF]LDSK([AEEA-AEEA-γGlu-C18 diacid])RAQDFVRWIAE[Aib]G-OH; N-terminus assumed)", "values": [
      {"measurement": "EC50", "setting": "[1]", "result": 568, "unit": "pM"},
      {"measurement": "EC50", "setting": "[2]", "result": 40.2, "unit": "pM"},
      {"measurement": "% Relative Potency Ratio", "setting": "[2]", "result": 27.9}
    ]},
    {"smiles": "CC(C)C[C@H](NC(=O)[C@](C)(Cc1ccccc1)NC(=O)[C@H](CCCCN)NC(=O)[C@H](CO)NC(=O)[C@@H](NC(=O)[C@H](CC(=O)O)NC(=O)[C@H](CO)NC(=O)[C@@H](NC(=O)[C@H](Cc1ccccc1)NC(=O)[C@@H](NC(=O)CNC(=O)[C@H](CCC(N)=O)NC(=O)C(C)(C)NC(=O)[C@@H](N)Cc1c[nH]cn1)[C@@H](C)O)[C@@H](C)O)C(C)C)C(=O)N[C@@H](CC(=O)O)C(=O)N[C@@H](CO)C(=O)N[C@@H](CCCCNC(=O)COCCOCCNC(=O)COCCOCCNC(=O)CC[C@H](NC(=O)CCCCCCCCCCCCCCCCC(=O)O)C(=O)O)C(=O)N[C@@H](CCCNC(=N)N)C(=O)N[C@@H](C)C(=O)N[C@@H](CCC(N)=O)C(=O)N[C@@H](CC(=O)O)C(=O)N[C@@H](Cc1ccccc1)C(=O)N[C@H](C(=O)N[C@@H](CCCNC(=N)N)C(=O)N[C@@H](Cc1c[nH]c2ccccc12)C(=O)N[C@H](C(=O)N[C@H](C(=O)N[C@@H](CCC(=O)O)C(=O)NC(C)(C)C(=O)NCC(=O)O)C(C)C)C(C)C)C(C)C", "note": "[Peptide 149] (H-H[Aib]QGTFTSDVSK[αMeF]LDSK([AEEA-AEEA-γGlu-C18 diacid])RAQDFVRWVVE[Aib]G-OH; N-terminus assumed)", "values": [
      {"measurement": "EC50", "setting": "[1]", "result": 2650, "unit": "pM"},
      {"measurement": "EC50", "setting": "[2]", "result": 8.71, "unit": "pM"},
      {"measurement": "% Relative Potency Ratio", "setting": "[2]", "result": 602.8}
    ]},
    {"smiles": "CC(C)C[C@H](NC(=O)[C@H](Cc1c[nH]c2ccccc12)NC(=O)[C@H](CCC(N)=O)NC(=O)[C@@H](NC(=O)[C@H](Cc1ccccc1)NC(=O)[C@H](CC(=O)O)NC(=O)[C@H](CCC(N)=O)NC(=O)[C@H](C)NC(=O)[C@H](CCCNC(=N)N)NC(=O)[C@H](CCCCNC(=O)COCCOCCNC(=O)COCCOCCNC(=O)CC[C@H](NC(=O)CCCCCCCCCCCCCCCCC(=O)O)C(=O)O)NC(=O)[C@H](CO)NC(=O)[C@H](CC(=O)O)NC(=O)[C@H](CC(C)C)NC(=O)[C@](C)(Cc1ccccc1)NC(=O)[C@H](CCCCN)NC(=O)[C@H](CO)NC(=O)[C@@H](NC(=O)[C@H](CC(=O)O)NC(=O)[C@H](CO)NC(=O)[C@@H](NC(=O)[C@H](Cc1ccccc1)NC(=O)[C@@H](NC(=O)CNC(=O)[C@H](CCC(N)=O)NC(=O)C(C)(C)NC(=O)[C@@H](N)Cc1c[nH]cn1)[C@@H](C)O)[C@@H](C)O)C(C)C)C(C)C)C(=O)N[C@@H](CC(C)C)C(=O)NC(C)(C)C(=O)N[C@H](C(=O)N[C@@H](CCC(=O)O)C(=O)O)[C@@H](C)O", "note": "[Peptide 150] (H-H[Aib]QGTFTSDVSK[αMeF]LDSK([AEEA-AEEA-γGlu-C18 diacid])RAQDFVQWLL[Aib]TE-OH; N-terminus assumed)", "values": [
      {"measurement": "EC50", "setting": "[1]", "result": 355, "unit": "pM"},
      {"measurement": "EC50", "setting": "[2]", "result": 166, "unit": "pM"},
      {"measurement": "% Relative Potency Ratio", "setting": "[2]", "result": 4.2}
    ]},
    {"smiles": "CC(C)C[C@H](NC(=O)[C@H](Cc1c[nH]c2ccccc12)NC(=O)[C@H](CCCNC(=N)N)NC(=O)[C@@H](NC(=O)[C@H](Cc1ccccc1)NC(=O)[C@H](CC(=O)O)NC(=O)[C@H](CCC(N)=O)NC(=O)[C@H](C)NC(=O)[C@H](CCCNC(=N)N)NC(=O)[C@H](CCCCNC(=O)COCCOCCNC(=O)COCCOCCNC(=O)CC[C@H](NC(=O)CCCCCCCCCCCCCCCCCCC(=O)O)C(=O)O)NC(=O)[C@H](CO)NC(=O)[C@H](CC(=O)O)NC(=O)[C@H](CC(C)C)NC(=O)[C@](C)(Cc1ccccc1)NC(=O)[C@H](CCCCN)NC(=O)[C@H](CO)NC(=O)[C@@H](NC(=O)[C@H](CC(=O)O)NC(=O)[C@H](CO)NC(=O)[C@@H](NC(=O)[C@H](Cc1ccccc1)NC(=O)[C@@H](NC(=O)CNC(=O)[C@H](CCC(N)=O)NC(=O)C(C)(C)NC(=O)[C@@H](N)Cc1c[nH]cn1)[C@@H](C)O)[C@@H](C)O)C(C)C)C(C)C)C(=O)N[C@@H](CC(C)C)C(=O)NC(C)(C)C(=O)N[C@H](C(=O)N[C@@H](CCC(=O)O)C(=O)O)[C@@H](C)O", "note": "[Peptide 151] (H-H[Aib]QGTFTSDVSK[αMeF]LDSK([AEEA-AEEA-γGlu-C20 diacid])RAQDFVRWLL[Aib]TE-OH; N-terminus assumed)", "values": [
      {"measurement": "EC50", "setting": "[1]", "result": 178, "unit": "pM"},
      {"measurement": "EC50", "setting": "[2]", "result": 111, "unit": "pM"},
      {"measurement": "% Relative Potency Ratio", "setting": "[2]", "result": 3.2}
    ]},
    {"smiles": "CC(C)C[C@H](NC(=O)[C@H](Cc1c[nH]c2ccccc12)NC(=O)[C@H](CCCNC(=N)N)NC(=O)[C@@H](NC(=O)[C@H](Cc1ccccc1)NC(=O)[C@H](CC(=O)O)NC(=O)[C@H](CCC(N)=O)NC(=O)[C@H](C)NC(=O)[C@H](CCCNC(=N)N)NC(=O)[C@H](CCCCNC(=O)COCCOCCNC(=O)COCCOCCNC(=O)CC[C@H](NC(=O)CCCCCCCCCCCCCCCCC(=O)O)C(=O)O)NC(=O)[C@H](CO)NC(=O)[C@H](CC(=O)O)NC(=O)[C@H](CC(C)C)NC(=O)[C@](C)(Cc1ccccc1)NC(=O)[C@H](CCCCN)NC(=O)[C@H](CO)NC(=O)[C@@H](NC(=O)[C@H](CC(=O)O)NC(=O)[C@H](CO)NC(=O)[C@@H](NC(=O)[C@H](Cc1ccccc1)NC(=O)[C@@H](NC(=O)CNC(=O)[C@H](CCC(N)=O)NC(=O)C(C)(C)NC(=O)[C@@H](N)Cc1c[nH]cn1)[C@@H](C)O)[C@@H](C)O)C(C)C)C(C)C)C(=O)N[C@@H](CC(C)C)C(=O)NC(C)(C)C(=O)N[C@@H](CCC(=O)O)C(=O)O", "note": "[Peptide 152] (H-H[Aib]QGTFTSDVSK[αMeF]LDSK([AEEA-AEEA-γGlu-C18 diacid])RAQDFVRWLL[Aib]E-OH; N-terminus assumed)", "values": [
      {"measurement": "EC50", "setting": "[1]", "result": 20.4, "unit": "pM"},
      {"measurement": "EC50", "setting": "[2]", "result": 11.9, "unit": "pM"},
      {"measurement": "% Relative Potency Ratio", "setting": "[2]", "result": 3.4}
    ]}
  ]
}
